Laboratory results published in US10314820B2, “Imidazole-based heterocyclic compounds” (priority 2014, dated 2019).

Assays:
[1] = system: Human hepatocytes (HepaRG cells); experiment: Human cytotoxicity assay in vitro (CellTiter-Glo), hepatocytes; format: cell-based; settings: hepatocyte cytotoxicity score; 24 h exposure
[2] = system: Human keratinocytes (HaCaT cells); experiment: Human cytotoxicity assay in vitro (CellTiter-Glo), keratinocytes; format: cell-based; settings: keratinocyte cytotoxicity score; 24 h exposure

SMILES | cytotoxicity cell line H [1] | cytotoxicity cell line K [2]
FC(F)(F)Oc1ccccc1-c1ccc(-c2nc(-c3ccc(Cl)cc3Cl)c[nH]2)o1 [Compound 68] | 2 | 2 (compounds causing>50% inhibition of cell viability at 25 μM)
Cc1[nH]c(-c2ccc(-c3cccc(C(F)(F)F)c3)o2)nc1-c1ccc(F)cc1 [Compound 38] | 1 (compounds not causing a loss of viability at concentrations between 25 and 50 μM) | 2 (compounds causing>50% inhibition of cell viability at 25 μM)
Cc1ccc(-c2ncc(-c3nc(-c4ccccc4)c(C)[nH]3)s2)cc1 [Compound 55] | 1 (compounds not causing a loss of viability at concentrations between 25 and 50 μM) | 
Cc1[nH]c(-c2csc(-c3cccc(Br)c3)n2)nc1-c1ccccc1 [Compound 14] | 1 (compounds not causing a loss of viability at concentrations between 25 and 50 μM) | 1 (compounds causing less than 50% inhibition of cell viability at 50 μM)
C#Cc1ccc(-c2nc(-c3ccc(-c4ccccc4C(F)(F)F)o3)[nH]c2C)cc1 [Compound 27] | 1 (compounds not causing a loss of viability at concentrations between 25 and 50 μM) | 2 (compounds causing>50% inhibition of cell viability at 25 μM)
Cc1[nH]c(-c2csc(-c3ccc(F)cc3)n2)nc1-c1ccccc1 [Compound 11] | 1 (compounds not causing a loss of viability at concentrations between 25 and 50 μM) | 2 (compounds causing>50% inhibition of cell viability at 25 μM)
Cc1nc(-c2ccc(-c3ccc(Cl)c(OC(F)(F)F)c3)o2)[nH]c1-c1ccc(F)cc1 [Compound 43] | 3 | 
Cc1[nH]c(-c2cc(C)n(-c3ccc(Cl)cc3)c2C)nc1-c1ccccc1 [Compound 8] | 2 | 1 (compounds causing less than 50% inhibition of cell viability at 50 μM)
Cc1[nH]c(-c2cc(C)n(-c3cccc(C(F)(F)F)c3)c2C)nc1-c1ccccc1 [Compound 36] | 3 | 2 (compounds causing>50% inhibition of cell viability at 25 μM)
Cc1nc(-c2ccc(-c3cccc(OC(F)(F)F)c3)o2)[nH]c1-c1ccc(F)cc1 [Compound 37] | 3 | 2 (compounds causing>50% inhibition of cell viability at 25 μM)
FC(F)(F)Oc1ccccc1-c1ccc(-c2ncc(-c3ccccc3)[nH]2)o1 [Compound 63] | 2 | 
Cc1[nH]c(-c2ccc(-c3ccc(C(F)(F)F)cc3)s2)nc1-c1ccccc1 [Compound 46] | 1 (compounds not causing a loss of viability at concentrations between 25 and 50 μM) | 1 (compounds causing less than 50% inhibition of cell viability at 50 μM)
Cc1[nH]c(-c2ccc(-c3ccccc3)s2)nc1-c1ccccc1 [Compound 74] | 1 (compounds not causing a loss of viability at concentrations between 25 and 50 μM) | 3 (compounds causing more than 50% inhibition of cell viability at 10 μM)
Cc1[nH]c(-c2ccc(-c3ccccc3OC(F)(F)F)o2)nc1Cc1ccc(Br)cc1 [Compound 30, 4-(4-Bromo-benzyl)-5-methyl-2-[5-(2-trifluoromethoxy-phenyl)-furan-2-yl]-1H-imidazole] | 3 | 3 (compounds causing more than 50% inhibition of cell viability at 10 μM)
Cc1[nH]c(-c2cc(C)n(-c3ccc(F)c(F)c3F)c2C)nc1-c1ccccc1 [Compound 10] | 3 | 2 (compounds causing>50% inhibition of cell viability at 25 μM)
Cc1[nH]c(-c2ccc(-c3ccccc3C(F)(F)F)o2)nc1-c1cccc(Cl)c1 [Compound 22] |  | 2 (compounds causing>50% inhibition of cell viability at 25 μM)
Cc1ccc(-c2ccc(-c3nc(-c4ccccc4)c(C)[nH]3)s2)cc1 [Compound 54] | 1 (compounds not causing a loss of viability at concentrations between 25 and 50 μM) | 1 (compounds causing less than 50% inhibition of cell viability at 50 μM)
Cc1[nH]c(-c2cc(C)n(-c3ccc(C(C)C)cc3)c2C)nc1-c1ccccc1 [Compound 58] | 3 | 2 (compounds causing>50% inhibition of cell viability at 25 μM)
Cc1[nH]c(-c2ccc(-c3ccccc3OC(F)(F)F)o2)nc1-c1ccc(C(F)(F)F)cc1 [Compound 26] | 1 (compounds not causing a loss of viability at concentrations between 25 and 50 μM) | 0 (compounds not causing loss of cell viability at concentrations of 50 μM or higher)
Cc1[nH]c(-c2cc(C)n(-c3ccc4c(c3)CCC4)c2C)nc1-c1ccccc1 [Compound 59] | 2 | 2 (compounds causing>50% inhibition of cell viability at 25 μM)
Cc1nc(-c2ccc(-c3ccccc3C(F)(F)F)o2)[nH]c1-c1ccccc1Cl [Compound 20] | 3 | 0 (compounds not causing loss of cell viability at concentrations of 50 μM or higher)
CCc1ccc(-c2[nH]c(-c3ccc(-c4ccccc4C(F)(F)F)o3)nc2C)cc1 [Compound 28] | 1 (compounds not causing a loss of viability at concentrations between 25 and 50 μM) | 0 (compounds not causing loss of cell viability at concentrations of 50 μM or higher)
FC(F)(F)c1ccccc1-c1ccc(-c2nc(Cl)c(-c3ccccc3)[nH]2)o1 [Compound 65] | 2 | 
Cc1[nH]c(-c2ccc(-c3ccc(Cl)cc3)s2)nc1-c1ccccc1 [Compound 6] | 0 (compounds without signs of cell viability loss at concentrations of 50 μM or higher) | 0 (compounds not causing loss of cell viability at concentrations of 50 μM or higher)
Cc1nc(-c2ccc(-c3ccccc3OC(F)(F)F)o2)[nH]c1-c1cccc(Cl)c1 [Compound 21] | 3 | 2 (compounds causing>50% inhibition of cell viability at 25 μM)
Cc1[nH]c(-c2ccc(-c3ccc(OC(F)(F)F)cc3Cl)o2)nc1-c1ccc(F)cc1 [Compound 51] | 3 | 3 (compounds causing more than 50% inhibition of cell viability at 10 μM)
Cc1[nH]c(-c2ccc(-c3ccc(F)cc3)s2)nc1-c1ccccc1 [Compound 7] | 1 (compounds not causing a loss of viability at concentrations between 25 and 50 μM) | 2 (compounds causing>50% inhibition of cell viability at 25 μM)
Cc1ccc(-c2nc(-c3nc(-c4ccccc4)c(C)[nH]3)cs2)cc1 [Compound 56] | 1 (compounds not causing a loss of viability at concentrations between 25 and 50 μM) | 3 (compounds causing more than 50% inhibition of cell viability at 10 μM)
Cc1[nH]c(-c2coc(-c3ccccc3C(F)(F)F)c2)nc1-c1ccccc1 [Compound 72] | 3 | 2 (compounds causing>50% inhibition of cell viability at 25 μM)
Cc1[nH]c(-c2ccn(-c3ccccc3C(F)(F)F)c2)nc1-c1ccccc1 [Compound 33] |  | 3 (compounds causing more than 50% inhibition of cell viability at 10 μM)
